Patent US20150152083A1, “Compounds and Compositions for Modulating EGFR Activity” (IRM LLC, A Delaware Limited Liability Company, priority 2012, published 2015)

Experiments:
EGFR(L858R/T790M) [1] = biological target: T1, EGFR(L858R/T790M) (Homo sapiens, UniProt P00533, L858R/T790M); test: EGFR target modulation in engineered NIH3T3 cell lines (phospho-EGFR AlphaLISA); type: cell-based; design: host or cells: NIH3T3; details: NIH3T3 cells expressing human EGFR L858R/T790M; 3 hours compound
Method: (§1) EGFR Target Modulation in Engineered NIH3T3 Cell Lines
(§2) NIH3T3 cell lines expressing human EGFR (WT, L858R, and L858RT790M) (obtained from Matthew Meyerson's Lab at DFCI) were maintained in 10% FBS/DMEM supplemented with 100 μg/ml Penicillin/Streptomycin (Hyclone #SV30010) and 2 μg/ml Puromycin. The cells were harvested with 0.05% Trypsin/EDTA (Hyclone #SH30236.01), re-suspended in 5% FBS/DMEM Pen/Strep without Puromycin and plated at 9,000 cells per well in 50 μl of media in a 384-well black plate with clear bottoms (Greiner #789068G). The cells were allowed to incubate overnight in a 37° C., 5% CO2 humidified tissue culture incubator. A 12-point test compound curve was prepared by serial diluting a 10 μM stock 1:3 in DMSO in a 384-well compound plate (Greiner #789201L). The serial diluted compounds were transferred to the plate containing cells by using a 50 nl Pin Head device (Perkin Elmer) and the cells were placed back in the incubator for 3 hours. Only the EGFR WT-expressing cells were induced with 50 ng/ml EGF (Preprotech #AF-100-15) for 5 minutes before lysis. The media was removed and cells were lysed in 25 μl of Lysis buffer containing protease and phosphatase inhibitors (1% Triton X-100, 20 mM Tris, pH 7.5, 1 mM EDTA, 1 mM EGTA, 150 mM NaCl, 1× complete cocktail inhibitor (Roche #11 697 498 001), 1× Phosphatase Inhibitor Cocktail Set II and Set III (Sigma #P5726 and #P0044)). The plates were shaken at 4° C. for 5 minutes with foil top at maximum speed. An aliquot of 5 μl from each well was transferred to ProxiPlate™ 384-well Plus plates (PE #6008289). The plates were sealed with a foil top and frozen at −80° C. and thawed when needed.
(§3) The frozen aliquots were thawed and briefly centrifuged. All antibodies and beads were diluted in 1× AlphaLISA HiBlock Buffer (PE #AL004C). Biotinylated anti-phospho-EGFR (Y1068) (Cell Signaling #4031) was incubated with the lysate for 1 hour at room temperature at 1 nM final concentration. Goat anti-total EGFR (R&D Systems #AF231) was added and allowed to equilibrate for 1 hour at room temperature at 1 nM final concentration. Then, 10 μl of mixed beads (AlphaScreen Streptavidin Donor Beads (PE #6760002S) and AlphaLISA anti-goat IgG Acceptor Beads (PE #AL107C)) was equilibrated for 1.5 hours before reading on EnVision plate reader using the built-in settings for AlphaScreen.
(§4) Cells untreated (L858R and L858RT790M) or EGF-induced (WT) were set to 100% maximum response. For a negative control, 10 μM HKI-272 was used to normalize data to 0% of maximum response. With these parameters, the IC50's for each compound in each cell line was calculated using non-linear curve fitting analysis.
Target sequence in this assay (P00533 25-1210 T790M/L858R): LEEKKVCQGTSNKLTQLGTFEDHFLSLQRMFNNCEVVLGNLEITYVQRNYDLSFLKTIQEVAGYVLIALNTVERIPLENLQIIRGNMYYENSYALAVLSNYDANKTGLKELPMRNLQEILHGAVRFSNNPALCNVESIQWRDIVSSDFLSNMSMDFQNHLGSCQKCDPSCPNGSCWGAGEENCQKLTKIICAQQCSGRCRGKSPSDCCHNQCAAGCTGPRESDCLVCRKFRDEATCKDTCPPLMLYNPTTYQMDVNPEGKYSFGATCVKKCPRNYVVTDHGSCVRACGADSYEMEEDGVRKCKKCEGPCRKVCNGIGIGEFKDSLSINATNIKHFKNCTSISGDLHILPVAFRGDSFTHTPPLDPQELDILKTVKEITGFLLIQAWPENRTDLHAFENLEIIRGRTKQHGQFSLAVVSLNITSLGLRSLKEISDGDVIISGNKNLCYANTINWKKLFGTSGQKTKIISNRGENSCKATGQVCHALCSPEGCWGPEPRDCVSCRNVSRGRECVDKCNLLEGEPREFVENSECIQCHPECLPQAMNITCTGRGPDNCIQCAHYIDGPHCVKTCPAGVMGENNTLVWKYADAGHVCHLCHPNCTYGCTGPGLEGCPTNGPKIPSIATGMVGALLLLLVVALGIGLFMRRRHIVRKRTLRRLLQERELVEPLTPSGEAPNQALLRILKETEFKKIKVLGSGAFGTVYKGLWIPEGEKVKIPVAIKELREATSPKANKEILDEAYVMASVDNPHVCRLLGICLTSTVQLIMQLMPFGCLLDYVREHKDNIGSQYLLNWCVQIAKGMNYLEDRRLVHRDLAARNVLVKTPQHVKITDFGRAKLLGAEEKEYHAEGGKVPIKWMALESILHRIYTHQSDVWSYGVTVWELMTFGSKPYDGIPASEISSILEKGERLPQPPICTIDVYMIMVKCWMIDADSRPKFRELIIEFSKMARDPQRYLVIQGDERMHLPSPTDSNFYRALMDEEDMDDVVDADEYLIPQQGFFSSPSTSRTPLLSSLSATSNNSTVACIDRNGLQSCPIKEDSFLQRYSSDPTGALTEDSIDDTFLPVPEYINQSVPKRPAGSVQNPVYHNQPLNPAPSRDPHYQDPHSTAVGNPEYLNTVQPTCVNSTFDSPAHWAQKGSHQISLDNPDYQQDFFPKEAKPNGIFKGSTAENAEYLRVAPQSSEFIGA

EGFR(L858R/T790M) [2] = biological target: T1, EGFR(L858R/T790M); test: EGFR biochemical assay (HTRF), IC50 determination; design: purchased from Carna (GST-a.a. 669-1210); purchased Carna; details: 10 μM ATP
Method: All EGFR biochemical assays were carried out by HTRF method. The EGFR(L858RT790M) enzyme were purchased from Carna (GST-a.a. 669-1210). The substrate peptide Biotin-TK-peptide was purchased from Cis-Bio. The reaction mixtures contained 1 μM peptide substrate, 10 μM ATP, and 0.036 nM EGFR(L858RT790M) in the reaction buffer (50 mM HEPES pH 7.1, 10 mM MgCl2, 0.01% BSA, 1 mM TCEP and 0.1 mM Na3VO4) at a final volume of 10 μL. All reactions were carried out at room temperature in white ProxiPlate™ 384-well Plus plates (PerkinElmer) and were quenched with 5 μL of 0.2 M EDTA at 60 min Five μL of the detection reagents (2.5 ng PT66K and 0.05 μg SAXL per well) were added, the plates were incubated at room temperature for 1 h and then read in EnVision reader. […] For no-preincubation condition, the compounds were added to the assay solution containing ATP and peptide, and the reaction was initiated by addition of enzyme. For pre-incubation conditions, the compounds were added to the assay solution containing enzyme and peptide, and pre-incubated at room temperature for desired period of time, then the reaction was initiated by addition of ATP.
Target sequence in this assay (P00533 669-1210 T790M/L858R): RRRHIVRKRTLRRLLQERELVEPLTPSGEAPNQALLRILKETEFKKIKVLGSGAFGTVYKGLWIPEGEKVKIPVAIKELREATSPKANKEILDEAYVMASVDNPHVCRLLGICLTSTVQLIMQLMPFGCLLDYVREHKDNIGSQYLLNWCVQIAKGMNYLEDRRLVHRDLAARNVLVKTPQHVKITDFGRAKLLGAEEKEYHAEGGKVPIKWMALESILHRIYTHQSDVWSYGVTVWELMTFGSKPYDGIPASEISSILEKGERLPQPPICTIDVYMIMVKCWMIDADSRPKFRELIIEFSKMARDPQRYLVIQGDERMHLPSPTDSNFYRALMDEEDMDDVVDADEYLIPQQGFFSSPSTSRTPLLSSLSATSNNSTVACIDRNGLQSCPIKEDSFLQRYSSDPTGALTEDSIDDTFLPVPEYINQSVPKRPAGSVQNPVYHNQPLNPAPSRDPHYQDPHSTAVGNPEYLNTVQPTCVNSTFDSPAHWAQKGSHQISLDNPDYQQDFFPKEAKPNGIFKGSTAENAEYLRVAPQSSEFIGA

EGFR (L858R) = biological target: T2, EGFR (L858R) (Homo sapiens, UniProt P00533, L858R); test: EGFR target modulation in engineered NIH3T3 cell lines (phospho-EGFR AlphaLISA); type: cell-based; details: NIH3T3 cells expressing human EGFR L858R; 3 hours compound
T2 construct: host or cells: NIH3T3
T2 sequence (P00533 25-1210 L858R): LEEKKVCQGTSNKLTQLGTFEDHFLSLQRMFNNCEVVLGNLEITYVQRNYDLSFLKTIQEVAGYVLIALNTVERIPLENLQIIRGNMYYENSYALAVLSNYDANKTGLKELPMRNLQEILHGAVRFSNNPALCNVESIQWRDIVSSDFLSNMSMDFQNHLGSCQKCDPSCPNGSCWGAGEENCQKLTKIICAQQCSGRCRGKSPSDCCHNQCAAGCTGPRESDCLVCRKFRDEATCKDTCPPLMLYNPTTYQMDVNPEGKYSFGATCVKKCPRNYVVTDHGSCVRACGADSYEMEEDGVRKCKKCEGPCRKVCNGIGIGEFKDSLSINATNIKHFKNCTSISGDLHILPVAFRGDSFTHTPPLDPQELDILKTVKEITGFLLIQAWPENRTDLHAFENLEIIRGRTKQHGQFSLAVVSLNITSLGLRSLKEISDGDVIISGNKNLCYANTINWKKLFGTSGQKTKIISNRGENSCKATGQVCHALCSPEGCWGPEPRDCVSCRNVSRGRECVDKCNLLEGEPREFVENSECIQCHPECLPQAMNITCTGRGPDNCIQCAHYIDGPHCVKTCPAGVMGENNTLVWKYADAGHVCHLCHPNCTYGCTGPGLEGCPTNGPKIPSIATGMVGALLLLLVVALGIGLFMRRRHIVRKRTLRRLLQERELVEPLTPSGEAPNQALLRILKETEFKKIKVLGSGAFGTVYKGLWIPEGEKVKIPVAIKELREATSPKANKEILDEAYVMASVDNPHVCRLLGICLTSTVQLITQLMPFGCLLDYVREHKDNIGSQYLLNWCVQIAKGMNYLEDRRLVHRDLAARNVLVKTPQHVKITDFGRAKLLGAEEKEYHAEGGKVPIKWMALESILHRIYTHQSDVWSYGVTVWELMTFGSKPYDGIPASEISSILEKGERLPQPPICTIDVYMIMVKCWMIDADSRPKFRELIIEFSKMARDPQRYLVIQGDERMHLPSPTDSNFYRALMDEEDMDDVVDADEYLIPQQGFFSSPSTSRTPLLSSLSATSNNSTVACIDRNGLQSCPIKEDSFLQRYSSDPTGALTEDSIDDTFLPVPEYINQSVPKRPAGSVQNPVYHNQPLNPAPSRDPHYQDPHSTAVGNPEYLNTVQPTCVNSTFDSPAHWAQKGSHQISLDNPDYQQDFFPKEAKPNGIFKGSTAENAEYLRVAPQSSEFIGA
Method: as §1, §2, §3, §4

EGFR (WT) = biological target: T3, EGFR (WT) (Homo sapiens, UniProt P00533); test: as above; type: cell-based; details: NIH3T3 cells expressing human EGFR WT; 3 hours compound; induced with 50 ng/ml EGF
T3 construct: host or cells: NIH3T3
T3 sequence (P00533 25-1210): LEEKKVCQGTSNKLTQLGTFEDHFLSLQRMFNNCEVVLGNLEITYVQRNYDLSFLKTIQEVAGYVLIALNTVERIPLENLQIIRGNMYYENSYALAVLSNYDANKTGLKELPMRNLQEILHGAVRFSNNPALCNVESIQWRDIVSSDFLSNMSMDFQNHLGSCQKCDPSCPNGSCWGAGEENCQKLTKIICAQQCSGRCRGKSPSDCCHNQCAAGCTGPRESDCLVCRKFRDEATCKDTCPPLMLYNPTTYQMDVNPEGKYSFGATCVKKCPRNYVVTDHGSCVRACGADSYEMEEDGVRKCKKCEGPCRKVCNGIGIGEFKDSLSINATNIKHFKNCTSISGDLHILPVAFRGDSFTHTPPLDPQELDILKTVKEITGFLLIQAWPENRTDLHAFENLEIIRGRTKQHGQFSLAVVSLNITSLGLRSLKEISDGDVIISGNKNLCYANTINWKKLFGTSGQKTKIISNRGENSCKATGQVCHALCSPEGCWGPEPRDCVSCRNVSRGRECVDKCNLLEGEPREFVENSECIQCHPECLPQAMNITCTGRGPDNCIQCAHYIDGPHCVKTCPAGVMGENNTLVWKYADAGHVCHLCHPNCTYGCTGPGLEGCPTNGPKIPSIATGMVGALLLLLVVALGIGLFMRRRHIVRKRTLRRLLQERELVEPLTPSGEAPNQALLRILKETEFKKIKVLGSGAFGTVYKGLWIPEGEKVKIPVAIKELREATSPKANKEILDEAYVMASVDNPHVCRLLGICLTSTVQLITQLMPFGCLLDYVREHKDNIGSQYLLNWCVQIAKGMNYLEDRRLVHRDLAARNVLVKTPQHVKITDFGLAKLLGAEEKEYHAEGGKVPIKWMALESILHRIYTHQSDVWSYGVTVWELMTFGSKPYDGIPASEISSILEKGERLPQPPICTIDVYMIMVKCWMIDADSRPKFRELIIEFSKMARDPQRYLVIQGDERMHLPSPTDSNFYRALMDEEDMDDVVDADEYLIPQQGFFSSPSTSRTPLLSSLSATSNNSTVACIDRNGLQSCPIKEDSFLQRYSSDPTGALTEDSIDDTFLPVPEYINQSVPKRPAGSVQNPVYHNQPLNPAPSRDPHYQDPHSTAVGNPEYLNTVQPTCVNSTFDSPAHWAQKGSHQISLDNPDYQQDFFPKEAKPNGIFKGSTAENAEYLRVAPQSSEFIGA
Method: as §1, §2, §3, §4

[3] = EGFR (L858R/T790M) IC50 (μM) 90 min pre-incubation, 90 min pre-incubation
[4] = no pre-incubation, read-out: EGFR (L858R/T790M) IC50 (μM) No pre-incubation

| IC50 (EGFR(L858R/T790M) [1]) [µM] | IC50 (EGFR(L858R/T790M) [2]; [3]) [µM] | IC50 (EGFR(L858R/T790M) [2]; [4]) [µM] | IC50 (EGFR (L858R)) [µM] | IC50 (EGFR (WT)) [µM] | SMILES |
| --- | --- | --- | --- | --- | --- |
| 0.026 | 0.003 | 0.072 | 0.25 | > 10 | C=CC(=O)Nc1cccc(-n2c(NC(=O)c3cccc(C(F)(F)F)c3)nc3cc(CN4CCOCC4)ccc32)c1 [Example 5-3, N-[5-(morpholin-4-ylmethyl)-1-[3-(prop-2-enamido)phenyl]-1H-1,3-benzodiazol-2-yl]-3-(trifluoromethyl)benzamide] |
| 0.83 | 0.046 | 0.62 | > 10 | > 10 | C=CC(=O)NCCCn1c(NC(=O)c2cccc(C(F)(F)F)c2)nc2cc(C)ccc21 [Example 8-4, N-{5-methyl-1-[3-(prop-2-enamido)propyl]-1H-1,3-benzodiazol-2-yl}-3-(trifluoromethyl)benzamide] |
